Results on 18 compounds are retold here after PubChem BioAssay AID248 (DTP/NCI, 2004).

Values joined by “and” are separate entries in the source; they are usually repeats but may differ in a detail not shown here. Identical values can stand only once. Inconclusive results and toxic doses are left out.

The subject of the assay is L1210 leukemia ip in BDF1 mice, survival T/C. Nature of the assay: NCI In Vivo Anticancer Drug Screen. Data for tumor model L1210 Leukemia (intraperitoneal) in B6D2F1 (BDF1) mice. To be noted: endpoint: mean survival time, higher = longer survival. The method, boiled down:
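Read-out is survival time, reported as the treated-group measurement over the vehicle-control measurement.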

[1] abbreviates: dose: 100.0 mg/kg/injection, schedule: Q01DX009 (ip), vehicle: saline.
Where [2] appears, read: dose: 200.0 mg/kg/injection, schedule: Q01DX009 (ip), vehicle: saline.
The mark [3] stands for this setting: dose: 75.0 mg/kg/injection, schedule: Q01DX001 (ip), vehicle: saline.
Setting [4] is: dose: 150.0 mg/kg/injection, schedule: Q01DX001 (ip), vehicle: saline.
Setting [5] is: dose: 300.0 mg/kg/injection, schedule: Q01DX001 (ip), vehicle: saline.
The mark [6] stands for this setting: dose: 100.0 mg/kg/injection, schedule: Q01DX001 (ip), vehicle: saline.
Setting [7] is: dose: 100.0 mg/kg/injection, schedule: Q01DX009 (ip), vehicle: saline with Tween-80.
Setting [8] is: dose: 200.0 mg/kg/injection, schedule: Q01DX001 (ip), vehicle: saline.
Where [9] appears, read: dose: 200.0 mg/kg/injection, schedule: Q01DX009 (ip), vehicle: saline with Tween-80.
The mark [10] stands for this setting: dose: 400.0 mg/kg/injection, schedule: Q01DX001 (ip), vehicle: saline.
Where [11] appears, read: dose: 400.0 mg/kg/injection, schedule: Q01DX009 (ip), vehicle: saline with Tween-80.

With `CN1CCCC(=O)NC1=O`, the T/C was 96 % of control under setting [1]; 104 % of control (dose: 100.0 mg/kg/injection, schedule: Q04DX003 (ip), vehicle: saline); 97 % of control under setting [2]; 98 % of control (dose: 200.0 mg/kg/injection, schedule: Q04DX003 (ip), vehicle: saline); 102 % of control (dose: 400.0 mg/kg/injection, schedule: Q01DX009 (ip), vehicle: saline); 95 % of control (dose: 400.0 mg/kg/injection, schedule: Q04DX003 (ip), vehicle: saline).
Take `O=C1c2cc([N+](=O)[O-])ccc2-c2cc(Cl)c([N+](=O)[O-])cc21`: the T/C by setting is: (dose: 50.0 mg/kg/injection, schedule: Q01DX001 (ip), vehicle: carboxymethylcellulose (CMC)) 102 % of control; (dose: 100.0 mg/kg/injection, schedule: Q01DX001 (ip), vehicle: carboxymethylcellulose (CMC)) 91 % of control; (dose: 200.0 mg/kg/injection, schedule: Q01DX001 (ip), vehicle: carboxymethylcellulose (CMC)) 91 % of control; (dose: 400.0 mg/kg/injection, schedule: Q01DX001 (ip), vehicle: carboxymethylcellulose (CMC)) 93 % of control.
On to `Cc1nnc2ncnc(SCc3ccccc3)c2n1`, for which the T/C is 100 % of control (dose: 12.5 mg/kg/injection, schedule: Q01DX001 (ip), vehicle: Klucel (hydroxypropylcellulose) (HPC)); 95 % of control and 91 % of control (dose: 25.0 mg/kg/injection, schedule: Q01DX001 (ip), vehicle: Klucel (hydroxypropylcellulose) (HPC)); 93 % of control (dose: 50.0 mg/kg/injection, schedule: Q01DX001 (ip), vehicle: Klucel (hydroxypropylcellulose) (HPC)); 90 % of control (dose: 100.0 mg/kg/injection, schedule: Q01DX001 (ip), vehicle: Klucel (hydroxypropylcellulose) (HPC)).
In the case of `CN=C(N)NCCCCCCCCNC(N)=NC`, the T/C by setting is: (dose: 5.0 mg/kg/injection, schedule: Q01DX001 (ip), vehicle: saline) 95 % of control; (dose: 10.0 mg/kg/injection, schedule: Q01DX001 (ip), vehicle: saline) 101 % of control; (dose: 20.0 mg/kg/injection, schedule: Q01DX001 (ip), vehicle: saline) 101 % of control.
In the case of `CCn1cc(C(=O)O)c(=O)c2cc3c(cc21)OCO3`, the T/C runs as follows: (dose: 100.0 mg/kg/injection, schedule: Q01DX001 (ip), vehicle: other) 96 % of control; (dose: 200.0 mg/kg/injection, schedule: Q01DX001 (ip), vehicle: other) 108 % of control; (dose: 400.0 mg/kg/injection, schedule: Q01DX001 (ip), vehicle: other) 98 % of control.
In the case of `CC(=O)c1c(C)c([N+](=O)[O-])c(C(C)(C)C)c([N+](=O)[O-])c1C`, the T/C is, setting by setting: (dose: 100.0 mg/kg/injection, schedule: Q01DX009 (ip), vehicle: Klucel (hydroxypropylcellulose) (HPC)) 100 % of control; (dose: 200.0 mg/kg/injection, schedule: Q01DX009 (ip), vehicle: Klucel (hydroxypropylcellulose) (HPC)) 97 % of control; (dose: 400.0 mg/kg/injection, schedule: Q01DX009 (ip), vehicle: Klucel (hydroxypropylcellulose) (HPC)) 96 % of control.
In the case of `COC(=O)/C=C\n1cnc2ccccc21`, the T/C reads like this: under setting [3], 109 % of control; under setting [4], 112 % of control; under setting [5], 107 % of control.
Consider `O=P(O)(c1cc(Cl)cc(Cl)c1)c1cc(Cl)cc(Cl)c1`, for which the T/C is 96 % of control (dose: 18.8 mg/kg/injection, schedule: Q01DX001 (ip), vehicle: saline); 96 % of control (dose: 37.5 mg/kg/injection, schedule: Q01DX001 (ip), vehicle: saline); 96 % of control under setting [3].
As to `OC(Cc1ccccc1)c1ccccc1` (stereo not drawn), the T/C is, setting by setting: (dose: 50.0 mg/kg/injection, schedule: Q01DX001 (ip), vehicle: saline) 100 % of control; under setting [6], 100 % of control; under setting [7], 89 % of control; under setting [8], 93 % of control; under setting [9], 98 % of control; under setting [10], 93 % of control. Also, the T/C under setting [11] is 95 % of control.
As to `Cc1nc(N)[nH]c(=O)c1CCCNc1ccc(CCCCC2(CCl)OCCO2)cc1`, the T/C (dose: 50.0 mg/kg/injection, schedule: Q01DX Z (ip), vehicle: carboxymethylcellulose (CMC)) was 98 % of control; the T/C (dose: 100.0 mg/kg/injection, schedule: Q01DX Z (ip), vehicle: carboxymethylcellulose (CMC)) is 101 % of control; the T/C (dose: 200.0 mg/kg/injection, schedule: Q01DX Z (ip), vehicle: carboxymethylcellulose (CMC)) is 95 % of control; the T/C (dose: 400.0 mg/kg/injection, schedule: Q01DX Z (ip), vehicle: carboxymethylcellulose (CMC)) is 101 % of control.
Take `CCSC1C(O)C(C(O)CO)OC1n1ccc(=O)[nH]c1=O` (stereo not drawn): the T/C (dose: 100.0 mg/kg/injection, schedule: Q01DX005 (ip), vehicle: saline) was 96 % of control and the T/C (dose: 200.0 mg/kg/injection, schedule: Q01DX005 (ip), vehicle: saline) was 98 % of control.
In the case of `CNCCN1CCC(Cc2ccccc2)CC1`, the T/C is, setting by setting: (dose: 50.0 mg/kg/injection, schedule: Q01DX009 (ip), vehicle: saline) 112 % of control; under setting [1], 102 % of control; under setting [2], 121 % of control.
With `CCOC(=O)c1ccc(N2C(=O)c3cccc4cccc(c34)C2=O)cc1`, the T/C runs as follows: under setting [7], 95 % of control; (dose: 100.0 mg/kg/injection, schedule: Q04DX003 (ip), vehicle: saline with Tween-80) 103 % of control; under setting [9], 89 % of control; (dose: 200.0 mg/kg/injection, schedule: Q04DX003 (ip), vehicle: saline with Tween-80) 98 % of control; under setting [11], 89 % of control; (dose: 400.0 mg/kg/injection, schedule: Q04DX003 (ip), vehicle: saline with Tween-80) 95 % of control.
For `O=S(=O)(O)Sc1ncnc2nc[nH]c12`, the T/C (dose: 125.0 mg/kg/injection, schedule: Q01DX009 (ip), vehicle: water) was 162 % of control; the T/C (dose: 250.0 mg/kg/injection, schedule: Q01DX009 (ip), vehicle: water) was 159 % of control; the T/C (dose: 250.0 mg/kg/injection, schedule: Q04DX003 (ip), vehicle: water) is 153 % of control.
As for `Nc1ncnc2c1ncn2C1OCC(CO)C1O` (stereo not drawn), the T/C (dose: 33.0 mg/kg/injection, schedule: Q01DX001 (ip), vehicle: carboxymethylcellulose (CMC)) is 97 % of control; the T/C (dose: 66.5 mg/kg/injection, schedule: Q01DX001 (ip), vehicle: carboxymethylcellulose (CMC)) is 108 % of control; the T/C under setting [6] was 107 % of control; the T/C (dose: 133.0 mg/kg/injection, schedule: Q01DX001 (ip), vehicle: carboxymethylcellulose (CMC)) was 97 % of control; the T/C under setting [8] was 101 % of control; the T/C under setting [10] was 107 % of control.
As for `CCOC(=O)C1C(=O)CC(=O)C(C(=O)OCC)C1c1ccc(OC)c(OC)c1OC` (stereo not drawn), the T/C by setting is: (dose: 100.0 mg/kg/injection, schedule: Q04DX002 (ip), vehicle: Klucel (hydroxypropylcellulose) (HPC)) 103 % of control; (dose: 200.0 mg/kg/injection, schedule: Q04DX002 (ip), vehicle: Klucel (hydroxypropylcellulose) (HPC)) 101 % of control; (dose: 400.0 mg/kg/injection, schedule: Q04DX002 (ip), vehicle: Klucel (hydroxypropylcellulose) (HPC)) 113 % of control.
Turning to `Cc1c([N+](=O)[O-])cc(C(C)(C)C)c(OC(=O)c2ccccc2)c1[N+](=O)[O-]`, the T/C is 123 % of control (dose: 100.0 mg/kg/injection, schedule: Q04DX002 (ip), vehicle: saline with Tween-80) and 116 % of control (dose: 200.0 mg/kg/injection, schedule: Q04DX002 (ip), vehicle: saline with Tween-80).
For `O=[N+]([O-])/C=C/c1cccc2ccccc12`, the T/C is, setting by setting: under setting [3], 94 % of control; under setting [4], 94 % of control; under setting [5], 101 % of control.
